Laboratory results from PubChem BioAssay (NCI).
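Cells were grown in 96-well plates and exposed to each compound for 48 hours at five concentrations; endpoints were interpolated linearly between bracketing concentrations, or set to the highest concentration if not reached. The concentration for 50% growth inhibition is given as GI50. TGI: concentration producing complete growth inhibition.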

Legend:
Test in all cases: NCI-60 cell line screen, 48 h
[1] = system: MCF7 breast
[2] = system: SK-MEL-2 melanoma
[3] = system: HS 578T breast
[4] = system: NCI-H226 lung
[5] = system: KM12 colon
[6] = system: OVCAR-3 ovarian
[7] = system: MALME-3M melanoma
[8] = system: COLO 205 colon
[9] = system: RPMI-8226 leukemia
[10] = system: HCC-2998 colon
[11] = system: UACC-257 melanoma
[12] = system: SNB-75 CNS
[13] = system: K-562 leukemia
[14] = system: SF-295 CNS
[15] = system: NCI-H460 lung
[16] = system: MDA-MB-231 breast
[17] = system: M14 melanoma
[18] = system: CCRF-CEM leukemia
[19] = system: DU-145 prostate
[20] = system: UACC-62 melanoma
[21] = system: MDA-MB-435
[22] = system: BT-549 breast
[23] = system: SNB-19 CNS
[24] = system: HOP-62 NSCLC
[25] = system: SF-539 CNS
[26] = system: SK-OV-3 ovarian
[27] = system: EKVX NSCLC
[28] = system: NCI-H522 lung

Question: With `COC(=O)C(Cc1cnc[nH]1)NC(=O)CNC(=O)CCCn1c(=O)c2c3ccccc3n(C)c2n2nnc(-c3ccccc3)c12` (stereo not given) as the compound, how does the GI50 [1] read?
Answer: Its GI50 is > 100 µM.

Question: What about the TGI [1] of the same compound?
Answer: Its TGI is > 100 µM.

Question: And the GI50 [2]?
Answer: Its GI50 is > 100 µM.

Question: What about the TGI [2] of the same compound?
Answer: The TGI was > 100 µM.

Question: And the GI50 [3]?
Answer: The GI50 was > 100 µM.

Question: What about the TGI [3] of the same compound?
Answer: Its TGI is > 100 µM.

Question: And the GI50 [4]?
Answer: The GI50 was > 100 µM.

Question: And the TGI [4]?
Answer: The TGI was > 100 µM.

Question: And the GI50 [5]?
Answer: The GI50 was > 100 µM.

Question: And the TGI [5]?
Answer: Its TGI is > 100 µM.

Question: And the GI50 [6]?
Answer: The GI50 was > 100 µM.

Question: What about the TGI [6] of the same compound?
Answer: Its TGI is > 100 µM.

Question: And the GI50 [7]?
Answer: Its GI50 is > 100 µM.

Question: What about the TGI [7] of the same compound?
Answer: The TGI was > 100 µM.

Question: What about the GI50 [8] of the same compound?
Answer: Its GI50 is > 100 µM.

Question: What about the TGI [8] of the same compound?
Answer: Its TGI is > 100 µM.

Question: And the GI50 [9]?
Answer: The GI50 was > 100 µM.

Question: What about the TGI [9] of the same compound?
Answer: Its TGI is > 100 µM.

Question: What about the GI50 [10] of the same compound?
Answer: The GI50 was > 100 µM.

Question: And the TGI [10]?
Answer: Its TGI is > 100 µM.

Question: What about the GI50 [11] of the same compound?
Answer: Its GI50 is > 100 µM.

Question: What about the TGI [11] of the same compound?
Answer: Its TGI is > 100 µM.

Question: What about the GI50 [12] of the same compound?
Answer: Its GI50 is > 100 µM.

Question: What about the TGI [12] of the same compound?
Answer: The TGI was > 100 µM.

Question: What about the GI50 [13] of the same compound?
Answer: Its GI50 is > 100 µM.

Question: And the TGI [13]?
Answer: The TGI was > 100 µM.

Question: What about the GI50 [14] of the same compound?
Answer: Its GI50 is > 100 µM.

Question: And the TGI [14]?
Answer: Its TGI is > 100 µM.

Question: What about the GI50 [15] of the same compound?
Answer: Its GI50 is > 100 µM.

Question: And the TGI [15]?
Answer: The TGI was > 100 µM.

Question: And the GI50 [16]?
Answer: The GI50 was > 100 µM.

Question: What about the TGI [16] of the same compound?
Answer: Its TGI is > 100 µM.

Question: And the GI50 [17]?
Answer: The GI50 was > 100 µM.

Question: What about the TGI [17] of the same compound?
Answer: The TGI was > 100 µM.

Question: What about the GI50 [18] of the same compound?
Answer: Its GI50 is > 100 µM.

Question: What about the TGI [18] of the same compound?
Answer: Its TGI is > 100 µM.

Question: What about the GI50 [19] of the same compound?
Answer: Its GI50 is > 100 µM.

Question: What about the TGI [19] of the same compound?
Answer: The TGI was > 100 µM.

Question: And the GI50 [20]?
Answer: Its GI50 is > 100 µM.

Question: What about the TGI [20] of the same compound?
Answer: The TGI was > 100 µM.

Question: What about the GI50 [21] of the same compound?
Answer: Its GI50 is > 100 µM.

Question: And the TGI [21]?
Answer: Its TGI is > 100 µM.

Question: And the GI50 [22]?
Answer: The GI50 was > 100 µM.

Question: And the TGI [22]?
Answer: The TGI was > 100 µM.

Question: And the GI50 [23]?
Answer: Its GI50 is > 100 µM.

Question: And the TGI [23]?
Answer: Its TGI is > 100 µM.

Question: What about the GI50 [24] of the same compound?
Answer: The GI50 was > 100 µM.

Question: And the TGI [24]?
Answer: The TGI was > 100 µM.

Question: What about the GI50 [25] of the same compound?
Answer: The GI50 was > 100 µM.

Question: What about the TGI [25] of the same compound?
Answer: Its TGI is > 100 µM.

Question: And the GI50 [26]?
Answer: The GI50 was > 100 µM.

Question: And the TGI [26]?
Answer: Its TGI is > 100 µM.

Question: What about the GI50 [27] of the same compound?
Answer: The GI50 was > 100 µM.

Question: What about the TGI [27] of the same compound?
Answer: Its TGI is > 100 µM.

Question: What about the GI50 [28] of the same compound?
Answer: The GI50 was > 100 µM.
